The nature of one data set: Solubility in water. It counts as physicochemical. Particulars: including with fetal calf serum added. The text has this: We dilute the tritoqualine in dimethyl sulfoxide, also called DMSO.
Another data set relates to TF1 line. As to the kind of experiment: Proliferation inhibition of TF1 myeloid leukemia line (cell count or XTT test). The data set is classed as cell-based. On the procedure:
(§1) The myeloid line is represented by the following clonal malignant cells: the HL60 line and the TF1 line. TF1 constitutively expresses the histamine H4 receptor and proliferates in response to GMCSF.
(§2) Tritoqualine, a mixture of 2 enantiomers, has been tested on this line between 10^−5 and 10^−7M with or without CB 10^−5M addition.
(§3) The TF1 line and the HL60 line are represented by inoculates of 100,000 cells in one milliliter incubated for 3 days with GM-CSF (10 ng/ml).
(§4) The reading is done on the third day and the number of cells in the proliferation phase is measured. […] Normally, all of the cells are in the proliferation phase when the cells are stimulated with GMCSF.
(§5) The results are expressed in proliferation inhibition % (n=3): The result is the Mean of the three tests performed.
(§6) The results are expressed in estimated proliferation inhibition % by cell count or by rock proliferation test. This test measures the incorporation of a dye when the cells are proliferating (XTT test).
In general terms: Tetrazolium assays rely on reduction of a dye to a coloured formazan, in cell work by metabolically active cells.

The target in data set [1] is T1, histamine H4 receptor (Homo sapiens, UniProt Q9H3N8). As to conditions: unit not given; cited from earlier work.
T1 sequence (Q9H3N8 whole entry, species assumed): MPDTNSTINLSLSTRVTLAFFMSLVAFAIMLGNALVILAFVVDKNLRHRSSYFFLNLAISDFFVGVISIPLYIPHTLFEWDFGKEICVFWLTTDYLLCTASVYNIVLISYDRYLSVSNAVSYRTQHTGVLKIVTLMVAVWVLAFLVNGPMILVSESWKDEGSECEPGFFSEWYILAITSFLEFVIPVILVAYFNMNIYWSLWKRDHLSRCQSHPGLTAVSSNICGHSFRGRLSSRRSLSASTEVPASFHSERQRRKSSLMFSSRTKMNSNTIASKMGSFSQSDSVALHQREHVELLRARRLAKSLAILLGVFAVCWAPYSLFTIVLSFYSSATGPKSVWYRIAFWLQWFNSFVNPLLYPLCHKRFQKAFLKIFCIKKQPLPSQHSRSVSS
For data set [2] the following is noted: white powder; breaks down into Cotarnine and phthalic acid; cited from earlier work.
A further data set relates to HL60 line. In words: Proliferation inhibition of HL60 myeloid leukemia line (cell count or XTT test). It counts as cell-based. As to conditions: tritoqualine at 10^-5; 3 days with GM-CSF 10 ng/ml; mean of n=3. Here is the method: as §1, §2, §3, §4, §5, §6
Another data set relates to Pro B line. In words: Proliferation inhibition of Pro B lymphoid line (cell count or XTT test). The data set is classed as cell-based. Here is the method: (§7) The lymphoid line is represented by the following clonal malignant cells: the Pre T line and the Pro B line. The cells are cultured using the same technique as the myeloid lines.
(§8) The reading is done on the third day, and the number of cells in the proliferation phase is measured. The ratio between the cells in the proliferation phase and the cells that are not proliferating yields the percentage of cells in inhibition. Normally, all of the cells are in the proliferation phase when the cells are stimulated with GMCSF.
(§9) The results are expressed in proliferation inhibition % (n=3): The result is the Mean of the three tests done.
as §6

Another data set concerns Pre T line. As to the kind of experiment: Proliferation inhibition of Pre T lymphoid line (cell count or XTT test). The data set is classed as cell-based. On the procedure:
as §7, §8, §9, §6

Data set [3] deals with T1, histamine H4 receptor. As to the kind of experiment: Reversal of tritoqualine effect by a histamine H4 antagonist. The data set is classed as cell-based. As to conditions: with a histamine H4 antagonist; myeloid cells. The text has this:
This appears to indicate that the H4 agonist effect is indeed responsible for the activity of tritoqualine.

The source of these data is US20150148538A1, “USE OF AN H4 AGONIST MOLECULE TO TREAT ACUTE LEUKEMIA” (priority 2013, published 2015).

As for `CCOc1c(N)c2c(c(OCC)c1OCC)C(C1c3c(cc4c(c3OC)OCO4)CCN1C)OC2=O` (centres unmarked) [tritoqualine, (AMINO-7 TRIETHOXY-4,5,6 OXO-1 DIHYDRO-1,3 ISOBENZOFURANNYL-3)-1 METHOXY-8 METHYL-2METHYLENEDIOXY-6,7 TETRAHYDRO-,2,3,4 ISOQUINOLEINE], the solubility in water result in the data set “Solubility in water” is recorded as “low solubility”. Besides, the “proliferation inhibition % of TF1 cells” value in the data set on TF1 line (tritoqualine at 10^-5, 3 days with GM-CSF 10 ng/ml, mean of n=3) was “approximately 58%”. Further, at histamine H4 receptor [1], the “affinity (histamine H4 agonist)” value is listed as 10^−6. For the same compound, the sensitivity to light result in data set [2] is given as “very sensitive to light”. In the data set with HL60 line, the “proliferation inhibition % of HL60 cells” value was about 68%. Further, in the data set with Pro B line, the “blocking of proliferation of Pro B cells (in words)” value is “not”. Besides, the “proliferation inhibition % of Pro B cells” value in the data set with Pro B line (at 10^-5, reading on third day, mean of n=3, equal to the control without product) is 15%. Moreover, the “blocking of proliferation of Pre T cells (in words)” value in the data set on Pre T line is given as “block the proliferation”. The “proliferation inhibition % of Pre T cells” value with Pre T line (at 10^-5, reading on third day, mean of n=3) is on record as “approximately 45%”. The “effect of a histamine H4 antagonist on the effect of tritoqualine” value at histamine H4 receptor [3] is recorded as “inhibits the effect of tritoqualine”.
Regarding `NC(=NCc1ccc(Cl)cc1)SCCCc1cnc[nH]1` [Clobenpropit], in the data set on TF1 line ('this line' (myeloid, TF1), dose of 10^-5M), the “inhibition of proliferation of the myeloid line (in words)” value is given as “inhibits the proliferation”. Moreover, the “affinity (histamine H4 agonist)” value at histamine H4 receptor [1] was 10^−9. In addition, the “blocking of proliferation of Pro B cells (in words)” value with Pro B line is “not”. Further, the “blocking of proliferation of Pre T cells (in words)” value with Pre T line is reported as “block the proliferation”.
